According to patent US10195178B2, “GPR40 agonists in anti-diabetic drug combinations” (Janssen Pharmaceutica NV, priority 2016, dated 2019):
“And” between values parts separate entries of the source, which are not always exact repeats. Identical values can stand only once.

Legend:
[1] = test system: SD rats; experiment: Oral Glucose Tolerance Test: Canagliflozin Combination with GPR40 Agonist; type: in vivo; settings: SD rat OGTT; for Blood glucose 0 min / Blood glucose 30 min / Blood glucose 60 min / Blood glucose 120 min / Blood glucose AUC / Blood glucose AUC % of Vehicle: single oral dose 60 min before glucose 2 g/kg; for Blood glucose AUC / Blood glucose AUC % of Vehicle: AUC 0-120 min
Method: We have evaluated the blood glucose (BG) lowering effect of canagliflozin (Cana) combined with a GPR40 agonist Cpd 2 in SD rat studies. Overnight fasted SD rats received either a single treatment of Cana or Cpd 2 or a combination of both. An oral glucose tolerance test (OGTT) was followed at 60 min post compound administration. […] The two-sided Z Test and Delta method were applied to statistically determine the treatment additivity of combinations using blood glucose AUC values. Results indicated the treatments were additive in the combinations of Canagliflozin at 1 or 3 mg/kg and Cpd 2 at 0.3 or 1 mg/kg.
• A. The formulation of Canagliflozin was prepared by directly adding the required amount of 0.5% HPMC to the compound and stirring overnight. • B. The formulation of Cpd 2 was prepared following steps listed below: • a. One equivalent (amount of compound/compound MW) of 1N NaOH was added to dry compound to enhance water solubility (due to compound itself is a carboxylic acid). • b. The required volume of 0.5% HPMC was then added; • c. The compound was vortexed and sonicated (without heat) for a minimum of 10 minutes. • d. The compound was then allowed to stir overnight. • C. For the formulation of combination of Canagliflozin (Cana) and Cpd 2: • a. First, a formulation of double concentrations of each compound was prepared.
• b. Right before dosing, the double-concentrated formulation of Cpd 2 was mixed with an equal volume of the double-concentrated formulation of Canagliflozin, such that each compound was as 1× concentration. • D. The dosing volume for all the experiments was 10 mL/kg Experimental Design
Male SD rats (225-245 g of body weight, purchased from Charles River) were used in this study. SD rats were housed 2 per cage in a temperature-controlled room with 12-hour light/dark cycle (6 am-6 pm lights on). They are allowed ad libitum access to water and fed with Purina 5K75 (LabDiet, St. Louis, Mo.).
SD rats were fasted overnight. In the morning of the next day, these rats were grouped into the following 12 groups based on their fasted blood glucose levels determined by a glucometer (LifeScan, New Brunswick, N.J.) and body weight.
At −60 minutes BG values were collected via tail bleeding. Next, rats were dosed orally with vehicle or compounds in vehicle. Then, at 0 minutes, rats were bled via tail vein to determine BG levels and dosed orally with glucose (2 g/kg; 50% glucose, 4 mL/kg). Blood samples were collected at 30, 60, and 120 minutes after oral glucose administration for BG determination.
Statistical analysis were performed using the program Prism (Graphpad, Monrovia, Calif.) with either a repeated measures 1-way ANOVA (glucose and insulin curves with Tukey's post-test) or a one-way ANOVA and Tukey's multiple comparison test (AUC, delta AUC and percent vehicle). All data are presented as the mean±standard error of the mean (SEM).
The two-sided Z Test and Delta method was applied to statistically determine the treatment additivity of combinations.

[2] = target: human GPR40 (Homo sapiens (Human), UniProt O14842); experiment: GPR40 Calcium Flux Assay; type: cell-based; settings: transfected HEK293 cells stably expressing human GPR40; mean data; read-out: hGPR40 Ca2+ Assay EC50
Method: Compounds were tested in a calcium flux assay using transfected HEK293 cells stably expressing either human GPR40 or rat GPR40. Human GPR40 expressing cells were cultured in DMEM-High Glucose media supplemented with 10% fetal bovine serum, 1×L-Glutamine, 1×Penicillin/Streptomycin and 500 μg/mL G418. Rat GPR40 expressing cells were cultured in DMEM-High Glucose media supplemented with 10% fetal bovine serum and 1 μg/mL puromycin. Cells were plated into poly-D-lysine coated 384-well plates and cultured overnight in a 37° C. humidified tissue culture incubator under 5% CO2/[…] atmosphere. On the day of the experiment, the culture media was replaced with assay buffer (HBSS, 20 mM HEPES, 0.1% BSA) and the cells incubated at 37° C. for 1 h. Calcium-sensitive fluorescent dye (Fluo 8 No-Wash Calcium Dye, ABD Bioquest) was then added and the cells incubated for another 30 min at 37° C. followed by 15 min at room temperature while protected from the light. The cell plate and a plate of diluted compounds of Formula (I) were loaded into a fluorescent plate reader that added compounds onto the cells while measuring the fluorescence intensity of each well. The plate reader recorded fluorescence intensity at 1 second intervals for 8 min and provided the data for analysis in an Excel format. EC50 values were calculated using Prism (GraphPad) software.

Sequence of human GPR40 (O14842 whole entry): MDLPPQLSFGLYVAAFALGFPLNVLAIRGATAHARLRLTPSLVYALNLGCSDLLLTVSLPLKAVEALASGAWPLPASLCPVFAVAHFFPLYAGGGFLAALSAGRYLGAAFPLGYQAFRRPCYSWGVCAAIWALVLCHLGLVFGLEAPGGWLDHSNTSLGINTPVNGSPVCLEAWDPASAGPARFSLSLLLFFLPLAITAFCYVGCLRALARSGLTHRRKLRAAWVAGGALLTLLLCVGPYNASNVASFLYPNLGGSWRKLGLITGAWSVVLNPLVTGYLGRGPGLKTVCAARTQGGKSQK

CC#C[C@@H](CC(=O)O)c1ccc(OCc2ccc3scc(-c4ccccc4C)c3c2)cc1 [Cpd 2, (3S)-3-[4-[[3-(2-Methylphenyl)benzo[b]thiophen-5-yl]methoxy]phenyl]hex-4-ynoic acid]
Blood glucose 0 min ([1]; 0.3 mpk): 86.1 ± 4.2 mg/dL | Blood glucose 30 min ([1]; 0.3 mpk): 149.0 ± 4.3 mg/dL | Blood glucose 60 min ([1]; 0.3 mpk): 153.1 ± 4.2 mg/dL | Blood glucose 120 min ([1]; 0.3 mpk): 103.3 ± 4.0 mg/dL | Blood glucose AUC ([1]; 0.3 mpk): 15,750 ± 244 mg/dL/120 min | Blood glucose AUC % of Vehicle ([1]; 0.3 mpk): 83.0 ± 1.3% | Blood glucose 0 min ([1]; 1 mpk): 76.1 ± 5.0 mg/dL | Blood glucose 30 min ([1]; 1 mpk): 132.3 ± 6.4 mg/dL | Blood glucose 60 min ([1]; 1 mpk): 139.6 ± 7.3 mg/dL | Blood glucose 120 min ([1]; 1 mpk): 102.4 ± 4.8 mg/dL | Blood glucose AUC ([1]; 1 mpk): 14,464 ± 554 mg/dL/120 min | Blood glucose AUC % of Vehicle ([1]; 1 mpk): 76.2 ± 2.9%

Cc1ccccc1-c1csc2ccc(COc3ccc([C@]4(CC(=O)O)C[C@@H](O)C4)cc3)cc12 [Cpd 31, 2-((1r,3r)-3-Hydroxy-1-(4-((3-(2-methylphenyl)benzo[b]thiophen-5-yl)methoxy)phenyl)cyclobutyl)acetic acid]
EC50 [2]: 48 nM

CC#CC(CC(=O)O)c1ccc(OCc2ccc3scc(-c4ccccc4C)c3c2)cc1 (stereo not shown) [Cpd 97, 3-(4-((3-(2-Methylphenyl)benzo[b]thiophen-5-yl)methoxy)phenyl)hex-4-ynoic acid]
EC50 [2]: 4 nM

CC#C[C@@H](CC(=O)O)c1ccc(OCc2ccc3scc(-c4ccc(OCCOC)cc4C)c3c2)nc1 [Cpd 77, (3R)-3-(6-((3-(4-(2-Methoxyethoxy)-2-methylphenyl)benzo[b]thiophen-5-yl)methoxy)pyridin-3-yl)hex-4-ynoic acid]
EC50 [2]: 16 nM and 6 nM and 5 nM

Cc1ccc([C@@H]2O[C@H](CO)[C@@H](O)[C@H](O)[C@H]2O)cc1Cc1ccc(-c2ccc(F)cc2)s1 [Cana, canagliflozin]
Blood glucose lowering during OGTT (in words) ([1]; 10 mg/kg): markedly lowering blood glucose | Blood glucose 0 min ([1]; 1 mpk): 76.9 ± 2.3 mg/dL | Blood glucose 30 min ([1]; 1 mpk): 162.8 ± 6.5 mg/dL | Blood glucose 60 min ([1]; 1 mpk): 177.8 ± 4.0 mg/dL | Blood glucose 120 min ([1]; 1 mpk): 135.5 ± 8.2 mg/dL | Blood glucose AUC ([1]; 1 mpk): 18,099 ± 551 mg/dL/120 min | Blood glucose AUC % of Vehicle ([1]; 1 mpk): 95.4 ± 2.9% | Blood glucose 0 min ([1]; 3 mpk): 85.1 ± 3.0 mg/dL | Blood glucose 30 min ([1]; 3 mpk): 140.5 ± 5.1 mg/dL | Blood glucose 60 min ([1]; 3 mpk): 156.4 ± 4.0 mg/dL | Blood glucose 120 min ([1]; 3 mpk): 125.1 ± 9.7 mg/dL | Blood glucose AUC ([1]; 3 mpk): 16,204 ± 412 mg/dL/120 min | Blood glucose AUC % of Vehicle ([1]; 3 mpk): 85.4 ± 2.2% | Blood glucose 0 min ([1]; 10 mpk): 73.6 ± 4.4 mg/dL | Blood glucose 30 min ([1]; 10 mpk): 91.9 ± 6.4 mg/dL | Blood glucose 60 min ([1]; 10 mpk): 103.5 ± 5.4 mg/dL | Blood glucose 120 min ([1]; 10 mpk): 95.1 ± 3.7 mg/dL | Blood glucose AUC ([1]; 10 mpk): 11,400 ± 459 mg/dL/120 min | Blood glucose AUC % of Vehicle ([1]; 10 mpk): 60.1 ± 2.4%
